Experimental data as given in PMC9856044 (Biomolecules, 2023).

Legend:
[1] = molecular target: poly A–poly U (AU-RNA); experiment: Fluorimetric titration with AU-RNA; format: binding
Method: Materials. Polynucleotides were purchased as noted: poly A–poly U, calf thymus ctDNA, poly(dAdT)2 and poly(dGdC)2 (Sigma-Aldrich, St. Louis, MI, USA). Polynucleotides were dissolved in Na-cacodylate buffer, I = 0.05 mol dm^−3, pH = 7.0. The calf thymus ctDNA was additionally sonicated and filtered through a […]. Polynucleotide concentration was determined spectroscopically as the concentration of phosphates. Spectrophotometric titrations were performed at pH = 7.0 (I = 0.05 mol dm^−3, sodium cacodylate buffer) by adding aliquots of polynucleotide solution into the solution of the studied compound for fluorimetric experiments and CD experiments were done by adding aliquots of the compound stock solution into the solution of a polynucleotide. In fluorimetric experiments, an excitation wavelength of λexc = 425, 431, 423, 427, 406 and 407 nm, respectively, was used to avoid the inner filter effect caused due to increasing absorbance of the polynucleotide. Emission was collected in the range λem = 400–700 nm. Values for Ka obtained by processing titration data using the Scatchard equation [27], all have satisfactory correlation coefficients (≥0.98). Furthermore, linear changes were evident with increasing DNA or RNA concentration in most titrations. The exceptions to this were titrations of cyanine 3 with GC-DNA and titrations of dye 5 with ds-DNA and ds-RNA where sufficient data points in the non-linear part of the curve allowed estimation of binding affinity (Ka values were of the order 10^5 mol^−1 dm^−3; Figures S16, S22 and S23 in SI). Titration data were collected at a high excess of polynucleotide binding sites (r[1–6]/[nucleotide phosphate] < 0.1; see Figures S9–S26 in SI) where each molecule can bind to a separate binding site. Binding affinities of dye-DNA/RNA complexes were calculated by non-linear fitting using the Scatchard equation [27, 33]. The fluorescence changes of dye 5 in the titration with AT-DNA were too small to obtain an accurate binding constant (Figure S21 in SI).

[2] = system: poly(dAdT)2 (AT-DNA); experiment: Thermal melting of AT-DNA; format: binding; details: r [compound]/[nucleotide phosphate] = 0.1
Method: Thermal melting curves for DNA, RNA and their complexes with studied compounds were determined as previously described by following the absorption change at 260 nm as a function of temperature. The absorbance of the ligands was subtracted from every curve and the absorbance scale was normalized. Tm values are the midpoints of the transition curves determined from the maximum of the first derivative and checked graphically by the tangent method. The ∆Tm values were calculated by subtracting Tm of the free nucleic acid from Tm of the complex. Every ∆Tm value here reported was the average of two measurements. The error in ∆Tm is ±0.5 °C. 5′-AGGG(TTAGGG)3–3′(Tel22) was obtained from IDT (Integrated DNA Technologies, Coralville, IA, USA). Tel22 was dissolved in 0.1 M either in sodium cacodylate or potassium phosphate buffer. The starting Tel22 oligonucleotide solution was first heated up to 95 °C for 10 min, then slowly cooled to 10 °C at the cooling rate of 1 °C/min to allow DNA oligonucleotide to adopt a G-quadruplex structure. The G-quadruplex structure was confirmed by thermal melting and CD spectra. The concentration of G quadruplex was expressed in terms of oligonucleotide structure. In fluorimetric titrations, aliquots of Tel 22 solution were added to the solution of ligands (c ~ 2 × 10^−7 M, in SI).
Binding abilities of 1–6 compounds were further explored by thermal melting experiments. […]

Question: Which results are given for `C[n+]1c(/C=C2\Sc3ccccc3N2CCCS)[se]c2ccccc21` [Compound 5, 2-((3-(3-mercaptopropyl)benzo[d]thiazol-2(3H)-ylidene)methyl)-3-methylbenzo[d][1,3]selenazol-3-ium methosulphate]?
Answer: log Ka ([1]; AU-RNA): 5; Ka (order of magnitude) ([1]; ds-RNA (AU-RNA), sodium cacodylate buffer, pH 7.0, I = 0.05 mol dm^−3, Scatchard equation): ~10^5 mol^−1 dm^−3; K (fit parameter of titration curve) ([1]; poly A – poly U, pH=7.0, sodium cacodylate buffer, I = 0.05 mol dm-3): 133756.34591 ±30379564.80418; ∆Tm value [2]: 4 °C
